The record followed here is US20230159463A1, “BENZONITRIC HETEROCYCLIC COMPOUND, PREPARATION METHOD THEREFOR AND USE THEREOF” (SHANGHAI ZHONGZE THERAPEUTICS, CO. LTD., priority 2020, published 2023).

Bounds are passed on as bounds.

One data set addresses T1, HDAC6 (Homo sapiens, UniProt Q9UBN7).
T1 construct: purchased Biovision Company
T1 sequence (Q9UBN7 1-1215): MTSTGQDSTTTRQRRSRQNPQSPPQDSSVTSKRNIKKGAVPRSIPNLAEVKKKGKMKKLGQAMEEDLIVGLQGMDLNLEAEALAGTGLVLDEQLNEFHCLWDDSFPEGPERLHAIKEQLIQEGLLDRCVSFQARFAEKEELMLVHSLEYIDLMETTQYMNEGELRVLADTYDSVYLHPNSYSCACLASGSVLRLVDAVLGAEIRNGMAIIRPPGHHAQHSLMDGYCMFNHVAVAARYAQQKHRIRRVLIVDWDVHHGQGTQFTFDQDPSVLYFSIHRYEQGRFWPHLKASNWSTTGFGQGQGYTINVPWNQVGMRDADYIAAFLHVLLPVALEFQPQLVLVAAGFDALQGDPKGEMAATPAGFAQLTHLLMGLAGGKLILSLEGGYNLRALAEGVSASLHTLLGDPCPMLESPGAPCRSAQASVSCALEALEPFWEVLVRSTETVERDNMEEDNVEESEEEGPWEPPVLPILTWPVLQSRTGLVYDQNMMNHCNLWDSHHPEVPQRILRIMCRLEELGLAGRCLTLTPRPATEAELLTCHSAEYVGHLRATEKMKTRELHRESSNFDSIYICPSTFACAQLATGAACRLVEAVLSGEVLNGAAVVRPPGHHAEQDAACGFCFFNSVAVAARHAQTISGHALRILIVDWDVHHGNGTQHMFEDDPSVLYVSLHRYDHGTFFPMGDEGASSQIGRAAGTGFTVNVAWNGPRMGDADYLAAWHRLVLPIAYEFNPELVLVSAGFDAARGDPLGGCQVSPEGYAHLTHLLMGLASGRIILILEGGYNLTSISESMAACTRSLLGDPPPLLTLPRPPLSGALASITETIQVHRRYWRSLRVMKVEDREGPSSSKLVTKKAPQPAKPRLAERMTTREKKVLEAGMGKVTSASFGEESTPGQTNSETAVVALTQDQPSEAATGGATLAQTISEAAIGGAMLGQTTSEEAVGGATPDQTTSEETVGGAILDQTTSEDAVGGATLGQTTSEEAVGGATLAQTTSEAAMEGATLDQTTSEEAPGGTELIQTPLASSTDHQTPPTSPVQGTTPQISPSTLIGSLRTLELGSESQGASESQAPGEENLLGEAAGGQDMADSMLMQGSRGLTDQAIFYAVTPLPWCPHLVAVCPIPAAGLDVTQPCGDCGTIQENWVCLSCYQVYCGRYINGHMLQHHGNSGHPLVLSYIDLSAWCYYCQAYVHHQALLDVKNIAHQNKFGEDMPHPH
Description: HDAC6 inhibitor screening kit (Biovision), in vitro inhibitory activity. Type of data set: biochemical. The method, then:
(§1) The in vitro inhibitory activity of histone deacetylase of the compound was determined according to the instructions of HDAC1 and HDAC6 inhibitor screening kit (Biovision Company).

For the next data set, the target named is T2, HDAC1 (Homo sapiens, UniProt Q13547).
T2 construct: purchased Biovision Company
T2 sequence (Q13547 whole entry): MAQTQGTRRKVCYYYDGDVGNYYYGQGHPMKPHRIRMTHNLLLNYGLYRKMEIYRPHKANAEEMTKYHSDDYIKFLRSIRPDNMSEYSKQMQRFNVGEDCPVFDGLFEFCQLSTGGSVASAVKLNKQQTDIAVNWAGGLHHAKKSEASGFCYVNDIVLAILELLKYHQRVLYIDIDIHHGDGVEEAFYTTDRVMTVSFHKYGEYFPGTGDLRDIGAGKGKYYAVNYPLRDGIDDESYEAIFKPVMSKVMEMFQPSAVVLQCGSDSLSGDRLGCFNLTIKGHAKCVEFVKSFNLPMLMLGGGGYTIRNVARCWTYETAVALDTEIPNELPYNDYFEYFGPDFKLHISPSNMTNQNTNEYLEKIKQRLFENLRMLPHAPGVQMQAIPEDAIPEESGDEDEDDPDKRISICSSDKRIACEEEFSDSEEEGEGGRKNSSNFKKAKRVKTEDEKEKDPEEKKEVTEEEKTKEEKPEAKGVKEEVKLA
The data set is described as follows: HDAC1 inhibitor screening kit (Biovision), in vitro inhibitory activity. Type of data set: biochemical. The method, then: as §1

The test system of the next data set is glioma cell line U-87MG. Description: In vitro anti-proliferative activity (CCK8), U-87MG. It is filed as cell-based. Conditions: Homo sapiens, 48 h, read-out: U-87MG (Glioma) Inh % in 10 μM.
Data set [1] deals with human liver cancer cell line HepG2. Description: In vitro anti-proliferative activity (CCK8), HepG2. It is filed as cell-based. The settings on record: HepG2, 48 h, read-out: Hep G2 (Liver cancer) Inh % in 10 μM. The method, then:
(§2) The specific results are shown in the table (unit: […] Test method: The tumor cells in the logarithmic growth phase with good growth status were inoculated into 96-well plates at 4×10^3 per well, and 8 duplicate wells were set up in each group. The cells were cultured in a cell incubator, after the cells adhered to the wall, […]. […] The experiment was repeated 3 times, and the average of the experimental results was taken as the final experimental result, and the inhibition rate was calculated.

Data set [2] deals with human lung cancer cell line A549. The data set is described as follows: In vitro anti-proliferative activity (CCK8), A549. Type of data set: cell-based. The settings on record: A549, 48 h, read-out: A549 (Lung cancer) Inh % in 10 μM. The method, then: as §2
In data set [3] the test system is MRC-5 human normal embryo lung fibroblast. Description: In vitro anti-proliferative activity (CCK8), MRC-5 normal cells. Type of data set: cell-based. Conditions: MRC5, 48 h, read-out: MRC-5 (Normal cell line) Inh % in 10 μM.
Data set [4] relates to mixed cells and primary neurons in rat cortex. The data set is described as follows: Protective effect on HCA-induced neuronal cell damage. Type of data set: cell-based. The settings on record: HCA 5 mmol/L; test concentration 0.1, 1.0 and 10.0 μM; compared with Tubastatin A at the same dose.
In a further data set the target is T3, hERG potassium channels (Homo sapiens, UniProt Q12809).
T3 construct: expressed in transfected cells
T3 sequence (Q12809 whole entry): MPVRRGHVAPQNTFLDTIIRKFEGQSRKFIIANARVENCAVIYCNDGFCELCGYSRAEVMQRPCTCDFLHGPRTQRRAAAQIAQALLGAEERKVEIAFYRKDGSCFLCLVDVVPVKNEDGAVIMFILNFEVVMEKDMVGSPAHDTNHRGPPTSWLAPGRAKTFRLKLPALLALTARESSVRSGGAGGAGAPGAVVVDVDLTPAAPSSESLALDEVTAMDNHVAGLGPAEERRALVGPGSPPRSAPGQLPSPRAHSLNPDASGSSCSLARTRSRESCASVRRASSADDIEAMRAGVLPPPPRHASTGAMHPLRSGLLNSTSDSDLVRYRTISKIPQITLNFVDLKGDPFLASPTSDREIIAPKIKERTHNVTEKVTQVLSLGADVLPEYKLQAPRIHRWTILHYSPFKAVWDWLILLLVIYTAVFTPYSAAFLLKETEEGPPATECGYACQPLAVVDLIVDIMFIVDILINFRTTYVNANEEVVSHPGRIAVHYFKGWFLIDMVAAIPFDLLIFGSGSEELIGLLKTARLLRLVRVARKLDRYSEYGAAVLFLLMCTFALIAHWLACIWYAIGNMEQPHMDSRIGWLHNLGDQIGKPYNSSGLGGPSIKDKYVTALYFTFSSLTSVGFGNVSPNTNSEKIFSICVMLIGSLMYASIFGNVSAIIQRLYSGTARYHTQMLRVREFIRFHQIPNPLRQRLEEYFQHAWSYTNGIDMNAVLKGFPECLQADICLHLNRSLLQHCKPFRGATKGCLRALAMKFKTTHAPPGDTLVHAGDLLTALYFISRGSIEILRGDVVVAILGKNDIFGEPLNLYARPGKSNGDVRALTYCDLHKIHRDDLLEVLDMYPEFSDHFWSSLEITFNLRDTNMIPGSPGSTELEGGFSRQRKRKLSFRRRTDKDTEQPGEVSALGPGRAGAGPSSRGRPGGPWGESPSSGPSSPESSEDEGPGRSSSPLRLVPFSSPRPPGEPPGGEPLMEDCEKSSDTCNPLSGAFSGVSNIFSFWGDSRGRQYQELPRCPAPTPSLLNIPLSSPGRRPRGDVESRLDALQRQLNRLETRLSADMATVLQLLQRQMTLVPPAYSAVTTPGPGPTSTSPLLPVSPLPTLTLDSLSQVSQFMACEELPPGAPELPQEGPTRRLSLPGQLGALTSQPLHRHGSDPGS
The data set is described as follows: hERG potassium channel whole-cell patch clamp. Type of data set: cell-based. The settings on record: hERG-HEK293 cells, IKr current. The source says: Whole-cell patch clamp technique was used to record the changes of hERG current (IKr) after different concentrations of compounds acted on HEK293 cells (hERG-HEK293 steady-state cells) expressing hERG potassium channels to study the half inhibitory concentration (IC50) of the above compounds on IKr.
(The hERG channel carries a current that helps repolarise heart muscle cells.)

Data set [5] is described as follows: Maximum tolerance dose by intragastric administration. The settings on record: ICR, mouse, in vivo, po; mice, single intragastric administration, 14 days observation; read-out: maximum tolerated dose. The method, then:
40 ICR mice, half male and half […], weighing 18 to 20 g, were divided into 4 groups with 10 animals in each group. After 6 hours of fasting, the test samples in each group were taken with sterilized plastic syringe and orally gavaged at a volume of 0.3 mL/10 g. The general physical signs of animals and the death of animals were recorded at 1, 2 and 4 hours after administration. […] The dead animals were dissected to observe whether there were any visible pathological changes in the organs of the animals, and pathological examinations were carried out on suspicious tissues and organs.

In data set [6] the test system is myeloma cell line RPMI 8226. Description: In vitro anti-proliferative activity (CCK8), RPMI 8226. Type of data set: cell-based. Conditions: Homo sapiens, RPMI-8226, 48 h, read-out: RPMI 8226 (Myeloma) Inh % in 10 μM.

By IC50 is commonly meant the concentration that gives 50% inhibition. A high value points to lower potency. As to `O=C(NO)c1ccc(CN2CCCSc3ccccc32)cc1` [Compound T-16, 4-((3,4-dihydrobenzo[b][1,4]thiazepin-5(2H)-yl)methyl)-N-hydroxybenzamide], the IC50 was 1.2 nM against HDAC6, 254 nM at HDAC1 and above 10000 nM against hERG potassium channels. In addition, the inhibition at 10 µM with glioma cell line U-87MG was 90 to 100%; in data set [1] it was 90 to 100%; in data set [2], 70 to 80%; in [3], below 50%; in data set [6], 90 to 100%. Further, in data set [4], the “protective effect against HCA-induced neuronal excitotoxicity (cell survival rate)” value is listed as “stronger than that of the HDAC6 inhibitor compound Tubastatin A”. Besides, in data set [5], the MTD at 14 days was above 1000 mg/kg.
